Measured values as given in patent US20220152224A1, “METHODS AND MATERIALS FOR TREATING CANCER” (priority 2019, published 2022).

Tested on: GSK3β
Experiment: Inhibition of GSK3β during Neurog2-induced neuronal conversion of U251 cells
Format: cell-based, human

| Compound | neuronal conversion efficiency of Neurog2-infected U251 cells (CHIR99021 5 μM for 20 days) | neuronal conversion efficiency of Neurog2-infected U251 cells (TWS119 10 μM for 20 days) |
| --- | --- | --- |
| Cc1c[nH]c(-c2cnc(NCCNc3ccc(C#N)cn3)nc2-c2ccc(Cl)cc2Cl)n1 [CHIR99021] | decreased neuronal conversion efficiency | – |
| Nc1cccc(-c2cc3c(Oc4cccc(O)c4)ncnc3[nH]2)c1 [TWS119] | – | decreased neuronal conversion efficiency |
